# From US20230272221A1, “REAGENTS FOR LABELING BIOMOLECULES” (Ultima Genomics, Inc., priority 2020, published 2023)
# Tests used:
# [1] = enzyme-independent bead assay for evaluating quenching with linker arm oligonucleotides; type: physicochemical; conditions: APC (red) channel, FIG. 14
# Text: The dye-labeled nucleotides provided herein may improve quenching between nucleobases and the dyes to which they are attached and/or between dyes in a nucleic acid molecule (e.g., a growing nucleic acid strand), such as in a homopolymeric region of a nucleic acid molecule. Quenching may be evaluated in an enzyme-independent manner.
# Synthetic oligos are constructed with one or two “linker arm nucleotides”. Linker arm nucleotides are thymidine analogs with a linker arm containing a primary amine. The oligonucleotide containing the linker arm nucleotide can be labeled with linkers and dyes and HPLC purified. The advantage of using the bead-labeled assay is that exact quantitation of the reagents is not necessary; a large excess can be used in each step and the beads washed, ensuring that only stoichiometric amounts of oligonucleotides are bound to the template. Each dye-linker is put on both oligonucleotides. The beads are measured on the flow cytometer in the APC (red) channel. The percent quenching is determined by the formula: % quenching=100×(1−Flbis/(2*Flmono)).
# FIGS. 14 and 15 show quenching results for red dye linkers (FIG. 14) and green dye linkers (FIG. 15). […] The hyp10 or hyp20 linkers improve quenching.
# [2] = relative fluorescence of dyes coupled directly to oligos, double-stranded DNA bound to beads, flow cytometer; type: physicochemical; conditions: FIG. 26
# Method: Fluorescence was measured with double-stranded DNA bound to beads using a flow cytometer. […] Accordingly, green dyes may have an inherent advantage over red dyes. This difference may owe at least in part to Atto633 being hydrophobic while Atto532 is comparatively hydrophilic.
Compound,"quenching, red dye linkers [1]",brightness of two dyes relative to a single dye coupled to an oligo [2]
CC[N+]1=c2cc3c(cc2CCC1)=C(c1ccccc1C(=O)N(C)CCCC(=O)O)c1ccc(N(C)C)cc1C3(C)C [Atto633],hyp10 improves quenching,0.4 ×
CCN1/C(=C/C=C/C=C/C2=[N+](CCCCCC(=O)O)c3ccc(S(=O)(=O)O)cc3C2(C)C)C(C)(C)c2cc(S(=O)(=O)[O-])ccc21 [Cy5],quenching may not be improved,
